Columns and labels:
[1] = biological target: T1, human somatostatin receptor 2 (Homo sapiens, UniProt P30874); test: Measurement of the binding inhibition rate of 125I-somatostatin; details: membrane fraction of SSTR2-HS5-9 CHO cells; 125I-somatostatin-14; 25° C., 60 minutes; compound concentration not given
T1 construct: expressed in transfected cells; host or cells: CHO cells, clone SSTR2-HS5-9 (membrane fraction)
Procedure: Measurement of the Binding Inhibition Rate of ^125I-Somatostatin
The receptor binding inhibition rate (%) of the subject compound was calculated using human.somatostatin receptor 2 expressing CHO cells and SSTR2-HS5-9 described in WO02/16350.
First, SSTR2-HS5-9 (1×10^9) was floated on a phosphate buffered saline supplemented with 5 mM EDTA (PBS-EDTA) and centrifuged. To the cell pellets was added 10 ml of a homogenate buffer for cells (10 mM NaHCO3, 5 mM EDTA, pH 7.5), which was homogenated using a Polytron homogenizer. The supernatant obtained by centrifugation at 400×g for 15 minutes was further centrifuged at 100,000×g for 1 hour to give a precipitate of the membrane fraction. The precipitates ere suspended in 2 ml of a buffer solution for assay [25 mM Tris-HCl, 1 mM EDTA (Ethylenediaminetetraacetic Acid), 0.1% BSA (Bovine Serum Albumin), 0.25 mM PMSF (Phenylmethylsulfonyl Fluoride), 1 μg/ml pepstatin, 20 μg/ml leupeptin, 10 μg/ml Phosphoramidone, pH 7.5], which was centrifuged at 100,000×g for 1 hour. The membrane fraction recovered as precipitates was suspended again in 20 ml of the buffer solution for assay, which was placed in tubes and stored at −80° C. The suspension was thawed and used at every use.
The thus-obtained membrane fraction of SSTR2-HS5-9 cells was diluted with a buffer solution for assay [25 mM Tris-HCl, 1 mM EDTA (Ethylenediaminetetraacetic Acid), 0.1% BSA (Bovine Serum Albumin), 0.25 mM PMSF (Phenylmethylsulfonyl Fluoride), 1 μg/ml pepstatin, 20 μg/ml leupeptin, 10 μg/ml Phosphoramidone, pH 7.51 to adjust the concentration to 3 μg/ml. The diluate was placed in tubes each in quantity of 173 μl. To this were simultaneously added 2 μl of a solution of a subject compound in DMSO and 25 μl of a 200 pM radioisotope-labeled somatostatin-14 (^125I-somatostatin-14: Amersham). For measurement of the maximum binding, a reaction mixture added with 2 μl of DMSO and 25 μl of a 200 pM ^125I-somatostatin was prepared. For measurement of non-specific binding, a reaction mixture added with 2 μl of a 100 μm somatostatin solution in DMSO and 25 μl of a 200 pM ^125I-somatostatin-14 solution was prepared at the same time. The mixtures were allowed to react at 25° C. for 60 minutes. Then, the reaction mixture was filtered by aspiration using a Whatman glass filter (GF-B) treated with polyethylenimine. After filtration, the radioactivity of ^125I-somatostatin-14 remaining on the filter paper was measured by a γ-counter. The binding inhibition rate (%) of each subject compound was calculated by the following formula: (TB−SB)/(TB−NSB)×100 • SB: radioactivity when a subject compound was added • TB: maximum binding radioactivity • NSB: non-specific binding radioactivity

glucagon secretion = test: Glucagon secretion inhibitory activity test (rat); format: in vivo; details: SD rats, male, fasted; 3 mg/kg body weight orally; insulin 2 U/kg s.c. 120 minutes later; plasma glucagon 30 minutes after insulin
Procedure: Glucagon Secretion Inhibitory Activity Test (Rat)
A 0.5% methylcellulose suspension containing the subject compound (3 mg/kg body weight) (compound administration group) or a 0.5% methylcellulose suspension (compound non-administration group) was orally administered to SD rats (male, 7 weeks of age) after fasting overnight, and 120 minutes later, insulin (2 U/kg body weight, Novo Nordisk) was subcutaneously administered. After 30 minutes from the insulin administration, the blood was drawn from the vein of eyegrounds of the rats using capillary, and blood plasma was separated by centrifugation. The concentration of glucagon in the obtained blood plasma was measured by radioimmunoassay using a Daiichi glucagon kit (Daiichi Isotope). As a non-treated group, the concentration of glucagon in the blood plasma of rat of the compound non-administration group free of insulin administration was measured in the same manner as above. […]

T1 sequence (P30874 whole entry): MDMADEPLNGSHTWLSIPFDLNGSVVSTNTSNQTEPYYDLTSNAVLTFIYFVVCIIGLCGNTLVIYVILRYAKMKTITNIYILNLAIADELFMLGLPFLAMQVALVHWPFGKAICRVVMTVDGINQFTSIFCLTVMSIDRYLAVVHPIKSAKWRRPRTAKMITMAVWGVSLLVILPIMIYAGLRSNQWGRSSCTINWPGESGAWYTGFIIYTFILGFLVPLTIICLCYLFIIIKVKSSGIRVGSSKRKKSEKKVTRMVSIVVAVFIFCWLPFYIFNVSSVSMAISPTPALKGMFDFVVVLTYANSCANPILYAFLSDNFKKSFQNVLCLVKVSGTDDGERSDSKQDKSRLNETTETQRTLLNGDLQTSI

## C[C@@H](c1c[nH]c2ccccc12)[C@@H](NC(=O)N1CCC(Oc2ccc(F)cc2)CC1)C(=O)Nc1cccc(CN(C)C)c1 [Example 2, N-( (1R,2S)-1-( ((3-((dimethylamino)methyl)phenyl)amino)carbonyl)-2-(1H-indol-3-yl)propyl)-4-(4-fluorophenoxy)-1-piperidinecarboxamide]
[1]
  binding inhibition rate (%): 100%

## CCOc1ccc(CN(C)C)cc1NC(=O)[C@H](NC(=O)N1CCN(c2ccc(F)cc2)CC1)[C@@H](C)c1c[nH]c2ccccc12 [Example 67, N-((1R,2S)-1-(((5-((dimethylamino)methyl)-2-ethoxyphenyl)amino)carbonyl)-2-(1H-indol-3-yl)propyl)-4-(4-fluorophenyl)-1-piperazinecarboxamide]
[1]
  binding inhibition rate (%): 96%

## CCOc1ccc(CN(C)C)cc1NC(=O)[C@H](NC(=O)N1CCC(c2ccccc2)CC1)[C@@H](C)c1c[nH]c2ccccc12 [Example 54, N-((1R,2S)-1-(((5-((dimethylamino)methyl)-2-ethoxyphenyl)amino)carbonyl)-2-(1H-indol-3-yl)propyl)-4-phenyl-1-piperidinecarboxamide]
[1]
  binding inhibition rate (%): 100%

## C[C@@H](c1c[nH]c2ccccc12)[C@@H](NC(=O)N1CCC(c2ccccc2)CC1)C(=O)Nc1cccc(CN(C)C)c1 [Example 1, N-((1R,2S)-1-(((3-((dimethylamino)methyl)phenyl)amino)carbonyl)-2-(1H-indol-3-yl)propyl)-4-phenyl-1-piperidinecarboxamide]
Glucagon secretion
  glucagon secretion (% of control): 9.5 % of control
[1]
  binding inhibition rate (%): 98%
